Measurements taken from patent US10273226B2, “Pyrazolyl-heteroarylamides as pesticides” (Bayer Animal Health GmbH, priority 2014, dated 2019).

Assays:
Format in all cases: in vivo
[1] = system: Boophilus microplus; test: Boophilus microplus injection test; details: application rate 20 μg/animal; injection into abdomen; assessed after 7 days
Method in brief: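 Compound dissolved in DMSO (10 mg per 0.5 ml, then diluted with DMSO to test concentration); 1 μl injected into the abdomen of 5 engorged adult female ticks, which are then held in a climate-controlled room. Efficacy judged after 7 days by laying of fertile eggs.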

[2] = system: Ctenocephalides felis; test: Ctenocephalides felis oral test; details: application rate 100 ppm in citrated cattle blood; after 2 days
Method in brief: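 About 20 unfed adult cat fleas fed through a parafilm membrane on citrated cattle blood containing compound, dosed from a DMSO stock. Kill in % scored after 2 days; 100% means all fleas dead.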

[3] = system: Phaedon cochleariae; test: Phaedon cochleariae spray test; details: application rate 100 g/ha; larvae; after 7 days
Method: Phaedon cochleariae—Spray Test
(§1) To produce an appropriate active ingredient formulation, 1 part by weight of active ingredient is dissolved using the specified parts by weight of solvent and made up with water containing an emulsifier concentration of 1000 ppm until the desired concentration is attained. To produce further test concentrations, the preparation is diluted with emulsifier-containing water.
Discs of Chinese cabbage leaves (Brassica pekinensis) are sprayed with an active ingredient formulation of the desired concentration and, after drying, populated with larvae of the mustard beetle (Phaedon cochleariae).
After 7 days, efficacy in % is determined. 100% means that all the beetle larvae have been killed; 0% means that no beetle larvae have been killed.

[4] = system: Spodoptera frugiperda; test: Spodoptera frugiperda spray test; details: application rate 100 g/ha; caterpillars; after 7 days
Method: Spodoptera frugiperda—Spray Test
as §1
Leaf discs of maize (Zea mays) are sprayed with an active ingredient formulation of the desired concentration and, after drying, populated with caterpillars of the armyworm (Spodoptera frugiperda).
After 7 days, efficacy in % is determined. 100% means that all the caterpillars have been killed; 0% means that no caterpillars have been killed.

[5] = system: Ctenocephalides felis; test: Ctenocephalides felis in vitro contact test with adult cat fleas; details: after 48 h, fleas dead or moribund
Method: Ctenocephalides felis—In Vitro Contact Tests with Adult Cat Fleas
(§2) For the coating of the test tubes, 9 mg of active ingredient are first dissolved in 1 ml of acetone p.a. and then diluted to the desired concentration with acetone p.a. 250 μl of the solution are distributed homogeneously on the inner walls and base of a 25 ml test tube by turning and rocking on an orbital shaker (rocking rotation at 30 rpm for 2 h). With 900 ppm active ingredient solution and internal surface 44.7 cm^2, given homogeneous distribution, an area-based dose of 5 μg/cm^2 is achieved.
After the solvent has evaporated off, the tubes are populated with 5-10 adult cat fleas (Ctenocephalides felis), sealed with a perforated plastic lid and incubated in a horizontal position at room temperature and ambient humidity. After 48 h, efficacy is determined. To this end, the test tubes are stood upright and the fleas are knocked to the base of the tube. Fleas which remain motionless at the base or move in an uncoordinated manner are considered to be dead or moribund.
100% efficacy means that all the fleas were dead or moribund. 0% efficacy means that no fleas were harmed.

[6] = system: Lucilia cuprina; test: Lucilia cuprina test; details: application rate 100 ppm; L1 larvae; after 2 days
Method in brief: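 About 20 L1 larvae placed in vessels with minced horsemeat treated with compound (DMSO concentrate diluted in water) at the desired concentration. Kill (%) scored after 2 days; 100% means all larvae dead, 0% none.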

[7] = system: Tetranychus urticae; test: Tetranychus urticae spray test, OP-resistant; details: after 6 days
Method: Tetranychus urticae—Spray Test, OP-Resistant
as §1
Discs of bean leaves (Phaseolus vulgaris) infested by all stages of the greenhouse red spider mite (Tetranychus urticae) are sprayed with an active ingredient formulation of the desired concentration.
After 6 days, efficacy in % is determined. 100% means that all the spider mites have been killed; 0% means that none of the spider mites have been killed.

[8] = system: Musca domestica; test: Musca domestica test; details: application rate 100 ppm; adult houseflies; after 2 days
Method: Solvent: dimethyl sulphoxide
To produce an appropriate active ingredient formulation, 10 mg of active ingredient are mixed with 0.5 ml of dimethyl sulphoxide, and the concentrate is diluted with water to the desired concentration.
Vessels containing a sponge treated with sugar solution and the active ingredient formulation of the desired concentration are populated with 10 adult houseflies (Musca domestica).
After 2 days, the kill in % is determined. 100% means that all of the flies have been killed; 0% means that none of the flies have been killed.

[9] = system: Rhipicephalus sanguineus; test: Rhipicephalus sanguineus in vitro contact test with adult brown dog ticks; details: after 48 h, ticks dead or moribund
Method: Rhipicephalus sanguineus—In Vitro Contact Tests with Adult Brown Dog Ticks
as §2
After the solvent has evaporated off, the tubes are populated with 5-10 adult dog ticks (Rhipicephalus sanguineus), sealed with a perforated plastic lid and incubated in a horizontal position in the dark at room temperature and ambient humidity. After 48 h, efficacy is determined. To this end, the ticks are knocked to the floor of the tube and incubated on a hotplate at 45-50° C. for not more than 5 min. Ticks which remain motionless on the floor or move in such an uncoordinated manner that they are unable to deliberately avoid the heat by climbing upwards are considered to be dead or moribund.
An efficacy of 100% means that all the ticks were dead or moribund. 0% efficacy means that none of the ticks had been harmed.

[10] = application rate 5 μg/cm^2 (500 g/ha)
[11] = application rate 1 μg/cm^2 (100 g/ha)

SMILES | efficacy (laying of fertile eggs) [1] | efficacy (kill in %) [2] | efficacy [3] | efficacy [4] | efficacy [5, 10] | efficacy (kill in %) [6] | efficacy ([7]; application rate 100 g/ha) | efficacy (kill in %) [8] | efficacy [9, 10] | efficacy ([7]; application rate 20 g/ha) | efficacy [9, 11] | efficacy [5, 11]
Cn1nc(C(F)(F)C(F)(F)F)c(C(F)(F)F)c1-n1cc(-c2cccc(NC(=O)c3cccnc3Cl)c2)cn1 [Example 1-028] | 100% | 100% | 100% | 100% | 100% | 100% | 100% | 100% | 100% | – | – | –
COC1CCC(C(=O)Nc2cc(-c3cnn(-c4c(C(F)(F)F)c(C(F)(F)C(F)(F)F)nn4C)c3)ccc2F)CC1 (mixture of isomers) [Example 1-047] | 100% | 100% | 100% | – | – | 100% | 100% | 80% | – | – | – | –
Cn1nc(C(F)(F)C(F)(F)F)c(C(F)(F)F)c1-n1cc(-c2ccc(F)c(NC(=O)c3ccccc3F)c2)cn1 [Example 1-071] | 100% | 90% | 100% | 100% | – | 100% | 100% | 80% | – | – | – | –
Cn1nc(C(F)(F)C(F)(F)F)c(C(F)(F)F)c1-n1cc(-c2cnc(F)c(NC(=O)c3ccncc3)c2)cn1 [Example 2-005] | 100% | 100% | 100% | 100% | 100% | 100% | – | 90% | – | 100% | 80% | –
Cn1nc(C(F)(F)C(F)(F)F)c(C(F)(F)F)c1-n1cc(-c2ccc(F)c(NC(=O)C3CC3)c2)cn1 [Example 1-055] | 100% | 100% | 100% | 100% | – | 100% | 90% | 100% | 80% | – | – | –
Cn1nc(C(F)(F)C(F)(F)F)c(C(F)(F)F)c1-n1cc(-c2ccc(F)c(NC(=O)c3ccncn3)c2)cn1 [Example 1-034] | 100% | 100% | 100% | 100% | 100% | 100% | 100% | 100% | 100% | – | – | –
Cn1nc(C(F)(F)C(F)(F)F)c(C(F)(F)F)c1-n1cc(-c2cccc(NC(=O)c3cccc(F)c3)c2)cn1 [Example 1-013] | 100% | 100% | 100% | 100% | 100% | 100% | 100% | 90% | 100% | – | – | –
Cn1nc(C(F)(F)C(F)(F)F)c(C(F)(F)F)c1-n1cc(-c2cccc(NC(=O)c3cc(F)cc(F)c3)c2)cn1 [Example 1-014] | 100% | 100% | 100% | 100% | – | 100% | 90% | 90% | 100% | – | – | 80%
Cc1ncc(-c2cnn(-c3c(C(F)(F)F)c(C(F)(F)C(F)(F)F)nn3C)c2)cc1NC(=O)c1ccc(F)cc1 [Example 2-003] | 100% | 100% | 100% | 100% | – | 100% | 100% | 100% | 100% | – | – | –
Cn1nc(C(F)(F)C(F)(F)F)c(C(F)(F)F)c1-n1cc(-c2cccc(NC(=O)C3CC3)c2)cn1 [Example 1-002] | 100% | 100% | 100% | 83% | – | 100% | – | 100% | 100% | – | – | –
CN(C)C(=O)C(=O)Nc1cc(-c2cnn(-c3c(C(F)(F)F)c(C(F)(F)C(F)(F)F)nn3C)c2)ccc1F [Example 1-127] | 100% | 100% | 100% | 100% | 100% | 100% | – | 100% | 100% | – | – | –
Cn1nc(C(F)(F)C(F)(F)F)c(C(F)(F)F)c1-n1cc(-c2cccc(NC(=O)CC(F)(F)F)c2)cn1 [Example 1-007] | 100% | 100% | 100% | 100% | – | 100% | 90% | 100% | 100% | – | – | –
Cc1ncc(-c2cnn(-c3c(C(F)(F)F)c(C(F)(F)C(F)(F)F)nn3C)c2)cc1NC(=O)c1ccncc1 [Example 2-004] | 100% | 100% | 100% | 100% | – | 100% | 100% | 80% | – | – | – | –
Cn1nc(C(F)(F)C(F)(F)F)c(C(F)(F)F)c1-n1cc(-c2ccc(F)c(NC(=O)c3ccc4c(c3)OC(F)(F)O4)c2)cn1 [Example 1-084] | 100% | 100% | 100% | 100% | – | 100% | – | 100% | 80% | – | – | –
Cn1cc(C(=O)Nc2cc(-c3cnn(-c4c(C(F)(F)F)c(C(F)(F)C(F)(F)F)nn4C)c3)ccc2F)cn1 [Example 1-035] | 100% | 100% | 100% | 100% | – | 100% | 100% | 100% | 80% | – | – | –
Cn1nc(C(F)(F)C(F)(F)F)c(C(F)(F)F)c1-n1cc(-c2ccc(F)c(NC(=O)C3(C)CC3)c2)cn1 [Example 1-058] | 100% | 100% | – | 83% | 100% | 100% | 100% | 80% | 100% | – | – | –
